Measured values reported in US20180243298A1, “TRPV3 MODULATORS” (AbbVie Inc., priority 2015, published 2018).

target: T1, human TRPV3 (Homo sapiens, UniProt Q8NET8); assay: Calcium flux assay (FLIPR TETRA), recombinant HEK293 cells expressing TRPV3, 2-APB response; format: cell-based; settings: 2-APB at its EC80
T1 construct: expressed in transfected cells; host or cells: HEK293
T1 sequence (Q8NET8 1-790): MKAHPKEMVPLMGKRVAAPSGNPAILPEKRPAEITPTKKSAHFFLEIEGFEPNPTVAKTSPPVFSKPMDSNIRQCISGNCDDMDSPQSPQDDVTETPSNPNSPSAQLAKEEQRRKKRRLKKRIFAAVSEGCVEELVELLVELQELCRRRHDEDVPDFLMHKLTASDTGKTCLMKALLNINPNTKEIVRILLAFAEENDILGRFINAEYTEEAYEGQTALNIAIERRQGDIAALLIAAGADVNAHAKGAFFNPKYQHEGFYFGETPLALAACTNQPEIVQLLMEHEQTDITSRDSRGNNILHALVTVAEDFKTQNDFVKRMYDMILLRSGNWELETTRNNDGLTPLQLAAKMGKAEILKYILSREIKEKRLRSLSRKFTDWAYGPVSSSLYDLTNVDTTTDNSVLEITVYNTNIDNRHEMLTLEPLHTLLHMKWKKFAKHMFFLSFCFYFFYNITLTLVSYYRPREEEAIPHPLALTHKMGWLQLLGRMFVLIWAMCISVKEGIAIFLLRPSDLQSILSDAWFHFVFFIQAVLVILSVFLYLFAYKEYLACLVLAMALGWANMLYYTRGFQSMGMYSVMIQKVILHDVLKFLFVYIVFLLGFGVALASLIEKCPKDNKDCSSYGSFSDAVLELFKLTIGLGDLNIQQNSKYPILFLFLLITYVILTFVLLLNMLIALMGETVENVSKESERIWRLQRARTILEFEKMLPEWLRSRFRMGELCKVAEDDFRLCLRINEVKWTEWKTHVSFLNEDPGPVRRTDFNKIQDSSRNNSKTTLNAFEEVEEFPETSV
How it was run: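 Response is the peak fluorescence increase over baseline, as a percentage of the compound-free response to 2-APB at EC80. Calcium flux recorded on FLIPR TETRA in stable human or mouse TRPV3 HEK293 cells after 90–120 min Calcium-4 dye loading.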

Question: Which IC50 does the source give for C#Cc1sc(NC(=O)c2c(OC)ncnc2OC)nc1C(F)(F)F [Example 11, N-[5-ethynyl-4-(trifluoromethyl)-1,3-thiazol-2-yl]-4,6-dimethoxypyrimidine-5-carboxamide] here?
Answer: The IC50 was under 50 nM.

Question: How did the IC50 turn out when COc1ncnc(OC)c1C(=O)Nc1nc(-c2ccc(C(F)(F)F)cn2)c(CN2CCCC2)s1 [Example 78, 4,6-dimethoxy-N-{5-(pyrrolidin-1-ylmethyl)-4-[5-(trifluoromethyl)pyridin-2-yl]-1,3-thiazol-2-yl}pyrimidine-5-carboxamide] was run?
Answer: The IC50 was 100 to 500 nM.

Question: How did the IC50 turn out when COc1ncnc(OC)c1C(=O)Nc1nc(-c2ccc(C(F)(F)F)cn2)c(S(C)(=O)=O)s1 [Example 114, 4,6-dimethoxy-N-[5-methylsulfonyl-4-[5-(trifluoromethyl)-2-pyridyl]-1,3-thiazol-2-yl]pyrimidine-5-carboxamide] was run?
Answer: Its IC50 is 100 to 500 nM.

Question: COc1ncnc(OC)c1C(=O)Nc1nc(C(F)(F)F)cs1 [Example 3, 4,6-dimethoxy-N-[4-(trifluoromethyl)-1,3-thiazol-2-yl]pyrimidine-5-carboxamide] was tested. Which IC50 did it give?
Answer: Its IC50 is 100 to 500 nM.

Question: How did the IC50 turn out when COc1ncnc(OC)c1C(=O)Nc1nc(C(F)(F)F)c(-c2ccnc(C3(C#N)CC3)c2)s1 [Example 151, N-{5-[2-(1-cyanocyclopropyl)pyridin-4-yl]-4-(trifluoromethyl)-1,3-thiazol-2-yl}-4,6-dimethoxypyrimidine-5-carboxamide] was run?
Answer: The IC50 was under 50 nM.

Question: CCc1sc(NC(=O)c2c(OC)ncnc2OC)nc1-c1ccccc1 [Example 26, N-(5-ethyl-4-phenyl-1,3-thiazol-2-yl)-4,6-dimethoxypyrimidine-5-carboxamide] was tested. Which IC50 did it give?
Answer: The IC50 was 50 to 100 nM.

Question: How did the IC50 turn out when COc1ncnc(OC)c1C(=O)Nc1nc(-c2ccc(F)cn2)cs1 [Example 91, N-[4-(5-fluoropyridin-2-yl)-1,3-thiazol-2-yl]-4,6-dimethoxypyrimidine-5-carboxamide] was run?
Answer: Its IC50 is 500 to 1000 nM.

Question: Which IC50 does the source give for COc1ncnc(OC)c1C(=O)Nc1nc(C(F)(F)F)c(C2(O)CCOCC2)s1 [Example 117, N-[5-(4-hydroxytetrahydro-2H-pyran-4-yl)-4-(trifluoromethyl)-1,3-thiazol-2-yl]-4,6-dimethoxypyrimidine-5-carboxamide] here?
Answer: Its IC50 is over 1000 nM.

Question: Which IC50 does the source give for COCCCc1sc(NC(=O)c2c(OC)ncnc2OC)nc1C(F)(F)F [Example 16, 4,6-dimethoxy-N-[5-(3-methoxypropyl)-4-(trifluoromethyl)-1,3-thiazol-2-yl]pyrimidine-5-carboxamide] here?
Answer: The IC50 was under 50 nM.

Question: With COc1ncnc(OC)c1C(=O)Nc1nc(C(F)(F)F)c(-c2ccc(C(C)(C)C#N)cn2)s1 [Example 158, N-{5-[5-(2-cyanopropan-2-yl)pyridin-2-yl]-4-(trifluoromethyl)-1,3-thiazol-2-yl}-4,6-dimethoxypyrimidine-5-carboxamide] as the molecule, how does the IC50 read?
Answer: The IC50 was under 50 nM.

Question: Which IC50 does the source give for COc1ncnc(OC)c1C(=O)Nc1nc(C(F)(F)F)c(-c2ccc(Cl)cc2)s1 [Example 4, N-[5-(4-chlorophenyl)-4-(trifluoromethyl)-1,3-thiazol-2-yl]-4,6-dimethoxypyrimidine-5-carboxamide] here?
Answer: The IC50 was 50 to 100 nM.

Question: Which IC50 does the source give for COc1ncnc(OC)c1C(=O)Nc1nc(C(F)(F)F)c(-c2cnc(C#N)c(OCC3COC3)c2)s1 [Example 205, N-(5-(6-cyano-5-(oxetan-3-yl-methoxy)pyridine-3-yl)-4-(trifluoromethyl)thiazol-2-yl)-4,6-dimethoxypyrimidine-5-carboxamide] here?
Answer: The IC50 was 100 to 500 nM.

Question: With COc1ncnc(OC)c1C(=O)Nc1nc(C(F)(F)F)c(C2COC(C)(C)O2)s1 (stereo not shown) [Example 35, N-[5-(2,2-dimethyl-1,3-dioxolan-4-yl)-4-(trifluoromethyl)-1,3-thiazol-2-yl]-4,6-dimethoxypyrimidine-5-carboxamide] as the molecule, how does the IC50 read?
Answer: Its IC50 is 100 to 500 nM.

Question: How did the IC50 turn out when COc1ncnc(OC)c1C(=O)Nc1nc(/C=C/C(C)(C)C)cs1 [Example 104, N-{4-[(1E)-3,3-dimethylbut-1-en-1-yl]-1,3-thiazol-2-yl}-4,6-dimethoxypyrimidine-5-carboxamide] was run?
Answer: The IC50 was over 1000 nM.

Question: With COc1ncnc(OC)c1C(=O)Nc1nc(C(F)(F)F)c(C#CC2CC2)s1 [Example 14, N-[5-(cyclopropylethynyl)-4-(trifluoromethyl)-1,3-thiazol-2-yl]-4,6-dimethoxypyrimidine-5-carboxamide] as the molecule, how does the IC50 read?
Answer: Its IC50 is under 50 nM.

Question: With COc1ncnc(OC)c1C(=O)Nc1nc(-c2ccc(C(F)(F)F)cn2)c(S(=O)(=O)c2ccc(C)cc2)s1 [Example 109, 4,6-dimethoxy-N-[5-(p-tolylsulfonyl)-4-[5-(trifluoromethyl)-2-pyridyl]-1,3-thiazol-2-yl]pyrimidine-5-carboxamide] as the molecule, how does the IC50 read?
Answer: Its IC50 is 100 to 500 nM.

Question: Which IC50 does the source give for COc1ncnc(OC)c1C(=O)Nc1nc(C(F)(F)F)c(C(C)(C)O)s1 [Example 116, N-[5-(2-hydroxypropan-2-yl)-4-(trifluoromethyl)-1,3-thiazol-2-yl]-4,6-dimethoxypyrimidine-5-carboxamide] here?
Answer: The IC50 was over 1000 nM.

Question: With COc1ncnc(OC)c1C(=O)Nc1nc(C(F)(F)F)c(C(=O)c2ccc(F)cn2)s1 [Example 131, N-{5-[(5-fluoropyridin-2-yl)carbonyl]-4-(trifluoromethyl)-1,3-thiazol-2-yl}-4,6-dimethoxypyrimidine-5-carboxamide] as the molecule, how does the IC50 read?
Answer: Its IC50 is under 50 nM.

Question: How did the IC50 turn out when COc1ncnc(OC)c1C(=O)Nc1nc(-c2ccc(C(F)(F)F)cn2)c(C(C)=O)s1 [Example 87, N-{5-acetyl-4-[5-(trifluoromethyl)pyridin-2-yl]-1,3-thiazol-2-yl}-4,6-dimethoxypyrimidine-5-carboxamide] was run?
Answer: Its IC50 is 50 to 100 nM.

Question: COc1ncnc(OC)c1C(=O)Nc1nc(C(F)(F)F)c(-c2cnn(CC3CC3)c2)s1 [Example 175, N-{5-[1-(cyclopropylmethyl)-1H-pyrazol-4-yl]-4-(trifluoromethyl)-1,3-thiazol-2-yl}-4,6-dimethoxypyrimidine-5-carboxamide] was tested. Which IC50 did it give?
Answer: Its IC50 is under 50 nM.

Question: With COc1ncnc(OC)c1C(=O)Nc1nc(C(F)(F)F)c(-c2ccnn2C(C)C)s1 [Example 180, 4,6-dimethoxy-N-{5-[1-(propan-2-yl)-1H-pyrazol-5-yl]-4-(trifluoromethyl)-1,3-thiazol-2-yl}pyrimidine-5-carboxamide] as the molecule, how does the IC50 read?
Answer: Its IC50 is under 50 nM.

Question: COc1ncnc(OC)c1C(=O)Nc1nc(C(F)(F)F)c(-c2cncc(OC(C)C)c2)s1 [Example 156, 4,6-dimethoxy-N-{5-[5-(propan-2-yloxy)pyridin-3-yl]-4-(trifluoromethyl)-1,3-thiazol-2-yl}pyrimidine-5-carboxamide] was tested. Which IC50 did it give?
Answer: Its IC50 is under 50 nM.

Question: COc1ncnc(OC)c1C(=O)Nc1nc(C(F)(F)F)c(C2(F)CCOCC2)s1 [Example 118, N-[5-(4-fluorotetrahydro-2H-pyran-4-yl)-4-(trifluoromethyl)-1,3-thiazol-2-yl]-4,6-dimethoxypyrimidine-5-carboxamide] was tested. Which IC50 did it give?
Answer: The IC50 was 500 to 1000 nM.

Question: COc1ncnc(OC)c1C(=O)Nc1nc(-c2ccc(C(F)(F)F)cn2)c(CCCO)s1 [Example 96, N-{5-(3-hydroxypropyl)-4-[5-(trifluoromethyl)pyridin-2-yl]-1,3-thiazol-2-yl}-4,6-dimethoxypyrimidine-5-carboxamide] was tested. Which IC50 did it give?
Answer: The IC50 was 100 to 500 nM.

Question: With COc1ncnc(OC)c1C(=O)Nc1nc(C(F)(F)F)c(/C(=N/O)c2ccc(F)cn2)s1 [Example 132, N-{5-[(E)-(5-fluoropyridin-2-yl)(hydroxyimino)methyl]-4-(trifluoromethyl)-1,3-thiazol-2-yl}-4,6-dimethoxypyrimidine-5-carboxamide] as the molecule, how does the IC50 read?
Answer: Its IC50 is under 50 nM.

Question: For COc1ncnc(OC)c1C(=O)Nc1nc(C(F)(F)F)c(-c2cc(C(C)C)no2)s1 [Example 171, 4,6-dimethoxy-N-{5-[3-(propan-2-yl)-1,2-oxazol-5-yl]-4-(trifluoromethyl)-1,3-thiazol-2-yl}pyrimidine-5-carboxamide], which IC50 is on record?
Answer: Its IC50 is 50 to 100 nM.

Question: How did the IC50 turn out when COc1ncnc(OC)c1C(=O)Nc1nc(C(F)(F)F)c(CN2CC[C@@H](OC)C2)s1 [Example 60, 4,6-dimethoxy-N-[5-{[(3R)-3-methoxypyrrolidin-1-yl]methyl}-4-(trifluoromethyl)-1,3-thiazol-2-yl]pyrimidine-5-carboxamide] was run?
Answer: Its IC50 is 500 to 1000 nM.

Question: How did the IC50 turn out when COc1ncnc(OC)c1C(=O)Nc1nc(CCC2CC2)cs1 [Example 105, N-[4-(2-cyclopropylethyl)-1,3-thiazol-2-yl]-4,6-dimethoxypyrimidine-5-carboxamide] was run?
Answer: The IC50 was 50 to 100 nM.

Question: How did the IC50 turn out when COc1ncnc(OC)c1C(=O)Nc1nc(C(F)(F)F)c(CN(C)CC(C)C)s1 [Example 54, 4,6-dimethoxy-N-[5-{[methyl(2-methylpropyl)amino]methyl}-4-(trifluoromethyl)-1,3-thiazol-2-yl]pyrimidine-5-carboxamide] was run?
Answer: Its IC50 is under 50 nM.

Question: With COc1ncnc(OC)c1C(=O)Nc1nc(C(F)(F)F)c(C(C)(O)c2ccccc2)s1 (stereo not shown) [Example 122, N-[5-(1-hydroxy-1-phenylethyl)-4-(trifluoromethyl)-1,3-thiazol-2-yl]-4,6-dimethoxypyrimidine-5-carboxamide] as the molecule, how does the IC50 read?
Answer: The IC50 was under 50 nM.

Question: Which IC50 does the source give for COc1ncnc(OC)c1C(=O)Nc1nc(C(F)(F)F)c(-c2cn(C)nc2C(C)C)s1 [Example 181, 4,6-dimethoxy-N-{5-[1-methyl-3-(propan-2-yl)-1H-pyrazol-4-yl]-4-(trifluoromethyl)-1,3-thiazol-2-yl}pyrimidine-5-carboxamide] here?
Answer: Its IC50 is 50 to 100 nM.
